Measurements taken from EP1025114B1, “3'-N-MODIFIED 6-O-SUBSTITUTED ERYTHROMYCIN KETOLIDE DERIVATIVES HAVING ANTIBACTERIAL ACTIVITY” (priority 1997, dated 1999).

What was measured:
Test in all cases: In vitro antibacterial activity, agar dilution MIC
Assay type in all cases: cell-based
[1] = tested on: Streptococcus Pheumoniae 5979; details: Streptococcus Pheumoniae 5979 (organism code ZZ); BHI agar, 35-37 °C, 20 to 24 hours; unit assumed
Outline: (§1)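 Test compound was serially diluted in Brain Heart Infusion agar across twelve plates, and each plate was spot-inoculated by replicator with 1:100 culture dilutions (1:10 for slow growers such as Streptococcus). MIC was the lowest concentration giving no growth, slight haze or sparsely isolated colonies relative to a drug-free growth control.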

[2] = tested on: Micrococcus luteus ATCC 4698; details: Micrococcus luteus ATCC 4698 (organism code PP); BHI agar, 35-37 °C, 20 to 24 hours; unit assumed
Outline: as §1

[3] = tested on: Haemophilis Influenzae DILL AMP R; details: Haemophilis Influenzae DILL AMP R (organism code WW); BHI agar, 35-37 °C, 20 to 24 hours; unit assumed
Outline: as §1

[4] = tested on: Streptococcus Pheumoniae ATCC6303; details: Streptococcus Pheumoniae ATCC6303 (organism code XX); BHI agar, 35-37 °C, 20 to 24 hours; unit assumed
Outline: as §1

[5] = tested on: Escherichia coli DC-2; details: Escherichia coli DC-2 (organism code SS); BHI agar, 35-37 °C, 20 to 24 hours; unit assumed
Outline: as §1

[6] = tested on: Nocardia Asteroides ATCC9970; details: Nocardia Asteroides ATCC9970 (organism code VV); BHI agar, 35-37 °C, 20 to 24 hours; unit assumed
Outline: as §1

[7] = tested on: Streptococcus pyogenes EES61; details: Streptococcus pyogenes EES61 (organism code LL); BHI agar, 35-37 °C, 20 to 24 hours; unit assumed
Outline: as §1

[8] = tested on: Escherichia coli SS; details: Escherichia coli SS (organism code RR); BHI agar, 35-37 °C, 20 to 24 hours; unit assumed
Outline: as §1

[9] = tested on: Candida albicans CCH 442; details: Candida albicans CCH 442 (organism code TT); BHI agar, 35-37 °C, 20 to 24 hours; unit assumed
Outline: as §1

[10] = tested on: Streptococcus pyogenes PIU 2548; details: Streptococcus pyogenes PIU 2548 (organism code NN); BHI agar, 35-37 °C, 20 to 24 hours; unit assumed
Outline: as §1

[11] = tested on: Staphylococcus aureus A5177; details: Staphylococcus aureus A5177 (organism code BB); BHI agar, 35-37 °C, 20 to 24 hours; unit assumed
Outline: as §1

[12] = tested on: Streptococcus pyogenes 930; details: Streptococcus pyogenes 930 (organism code MM); BHI agar, 35-37 °C, 20 to 24 hours; unit assumed
Outline: as §1

[13] = tested on: Streptococcus bovis A-5169; details: Streptococcus bovis A-5169 (organism code JJ); BHI agar, 35-37 °C, 20 to 24 hours; unit assumed
Outline: as §1

[14] = tested on: Micrococcus luteus ATCC 9341; details: Micrococcus luteus ATCC 9341 (organism code OO); BHI agar, 35-37 °C, 20 to 24 hours; unit assumed
Outline: as §1

[15] = tested on: Streptococcus Pheumoniae 5649; details: Streptococcus Pheumoniae 5649 (organism code ZZA); BHI agar, 35-37 °C, 20 to 24 hours; unit assumed
Outline: as §1

[16] = tested on: Staphylococcus aureus CMX 642A; details: Staphylococcus aureus CMX 642A (organism code DD); BHI agar, 35-37 °C, 20 to 24 hours; unit assumed
Outline: as §1

[17] = tested on: Streptococcus agalactiae CMX 508; details: Streptococcus agalactiae CMX 508 (organism code KK); BHI agar, 35-37 °C, 20 to 24 hours; unit assumed
Outline: as §1

[18] = tested on: Staphylococcus aureus NCTC10649M; details: Staphylococcus aureus NCTC10649M (organism code EE); BHI agar, 35-37 °C, 20 to 24 hours; unit assumed
Outline: as §1

[19] = tested on: Mycobacterium smegmatis ATCC 114; details: Mycobacterium smegmatis ATCC 114 (organism code UU); BHI agar, 35-37 °C, 20 to 24 hours; unit assumed
Outline: as §1

[20] = tested on: Staphylococcus aureus 1775; details: Staphylococcus aureus 1775 (organism code GG); BHI agar, 35-37 °C, 20 to 24 hours; unit assumed
Outline: as §1

[21] = tested on: Staphylococcus aureus ATCC 6538P; details: Staphylococcus aureus ATCC 6538P (organism code AA); BHI agar, 35-37 °C, 20 to 24 hours; unit assumed
Outline: as §1

[22] = tested on: Escherichia coli JUHL; details: Escherichia coli JUHL (organism code QQ); BHI agar, 35-37 °C, 20 to 24 hours; unit assumed
Outline: as §1

[23] = tested on: Staphylococcus aureus A-5278; details: Staphylococcus aureus A-5278 (organism code CC); BHI agar, 35-37 °C, 20 to 24 hours; unit assumed
Outline: as §1

[24] = tested on: Enterococcus faecium ATCC 8043; details: Enterococcus faecium ATCC 8043 (organism code II); BHI agar, 35-37 °C, 20 to 24 hours; unit assumed
Outline: as §1

[25] = tested on: Streptococcus Pheumoniae GYR 1171; details: Streptococcus Pheumoniae GYR 1171 (organism code YY); BHI agar, 35-37 °C, 20 to 24 hours; unit assumed
Outline: as §1

[26] = tested on: Staphylococcus aureus CMX 553; details: Staphylococcus aureus CMX 553 (organism code FF); BHI agar, 35-37 °C, 20 to 24 hours; unit assumed
Outline: as §1

[27] = tested on: Staphylococcus epidermidis 3519; details: Staphylococcus epidermidis 3519 (organism code HH); BHI agar, 35-37 °C, 20 to 24 hours; unit assumed
Outline: as §1

Row | SMILES | MIC [1] | MIC [2] | MIC [3] | MIC [4] | MIC [5] | MIC [6] | MIC [7] | MIC [8] | MIC [9] | MIC [10] | MIC [11] | MIC [12] | MIC [13] | MIC [14] | MIC [15] | MIC [16] | MIC [17] | MIC [18] | MIC [19] | MIC [20] | also measured
1 | CC[C@H]1OC(=O)[C@H](C)C(=O)[C@H](C)[C@@H](O[C@@H]2O[C@H](C)C[C@H](N(C)CC3CC3)[C@H]2O)[C@](C)(OCC=Cc2cnc3ccccc3c2)C[C@@H](C)C(=O)[C@H](C)[C@H]2NC(=O)O[C@@]21C [Example 15, Compound of Formula (II); R is -CH2CH=CH-(3-quinolyl), R^p is H, W is absent, R^w is H, R^1 is CH2-(cyclo-C3H5), R^2 is CH3] | > 128 µg/mL | 0.39 µg/mL | 8 µg/mL | 0.03 µg/mL | > 100 µg/mL | 0.2 µg/mL | 0.02 µg/mL | 0.2 µg/mL | > 100 µg/mL | 0.1 µg/mL | 0.39 µg/mL | 25 µg/mL | 0.02 µg/mL | 0.05 µg/mL | 0.25 µg/mL | 0.39 µg/mL | 0.05 µg/mL | 0.39 µg/mL | 0.78 µg/mL | > 100 µg/mL | MIC [21]: 0.39 µg/mL; MIC [22]: > 100 µg/mL; MIC [23]: > 100 µg/mL; MIC [24]: 0.05 µg/mL; MIC [25]: 0.03 µg/mL; MIC [26]: 0.39 µg/mL; MIC [27]: 0.39 µg/mL
2 | CCCN(C)[C@H]1C[C@@H](C)O[C@@H](O[C@@H]2[C@@H](C)C(=O)[C@@H](C)C(=O)O[C@H](CC)[C@@]3(C)OC(=O)N[C@@H]3[C@@H](C)C(=O)[C@H](C)C[C@@]2(C)OCC=Cc2cnc3ccccc3c2)[C@@H]1O [Example 16, Compound of Formula (II); R is -CH2CH=CH-(3-quinolyl), R^p is H, W is absent, R^w is H, R^1 is CH2CH2CH3, R^2 is CH3] | 128 µg/mL | 0.39 µg/mL | 8 µg/mL | 0.03 µg/mL | > 100 µg/mL | 0.1 µg/mL | 0.01 µg/mL | 0.2 µg/mL | > 100 µg/mL | 0.1 µg/mL | 0.39 µg/mL | 12.5 µg/mL | 0.01 µg/mL | 0.02 µg/mL | 0.5 µg/mL | 0.39 µg/mL | 0.01 µg/mL | 0.39 µg/mL | 1.56 µg/mL | > 100 µg/mL | MIC [21]: 0.39 µg/mL; MIC [22]: > 100 µg/mL; MIC [23]: > 100 µg/mL; MIC [24]: 0.05 µg/mL; MIC [25]: 0.03 µg/mL; MIC [26]: 0.39 µg/mL; MIC [27]: 0.39 µg/mL
3 | CC[C@H]1OC(=O)[C@H](C)C(=O)[C@H](C)[C@@H](O[C@@H]2O[C@H](C)C[C@H](N(C)CC=Cc3ccccc3)[C@H]2O)[C@](C)(OCC=Cc2cnc3ccccc3c2)C[C@@H](C)C(=O)[C@H](C)[C@H]2NC(=O)O[C@@]21C [Example 17, Compound of Formula (II); R is -CH2CH=CH-(3-quinolyl), R^p is H, W is absent, R^w is H, R^1 is CH2CH=CHC6H5, R^2 is CH3] | 16 µg/mL | 0.39 µg/mL | 8 µg/mL | ≤ 0.015 µg/mL | > 100 µg/mL | 0.2 µg/mL | 0.2 µg/mL | 1.56 µg/mL | > 100 µg/mL | 0.39 µg/mL | 0.39 µg/mL | 12.5 µg/mL | 0.05 µg/mL | 0.05 µg/mL | 0.25 µg/mL | 0.39 µg/mL | 0.05 µg/mL | 0.78 µg/mL | 0.39 µg/mL | > 100 µg/mL | MIC [21]: 0.39 µg/mL; MIC [22]: > 100 µg/mL; MIC [23]: > 100 µg/mL; MIC [24]: 0.1 µg/mL; MIC [25]: ≤ 0.015 µg/mL; MIC [26]: 0.39 µg/mL; MIC [27]: 0.39 µg/mL
4 | C=C(CN(C)[C@H]1C[C@@H](C)O[C@@H](O[C@@H]2[C@@H](C)C(=O)[C@@H](C)C(=O)O[C@H](CC)[C@@]3(C)OC(=O)N[C@@H]3[C@@H](C)C(=O)[C@H](C)C[C@@]2(C)OCC=Cc2cnc3ccccc3c2)[C@@H]1O)C(=O)OC [Example 18, Compound of Formula (II); R is -CH2CH=CH-(3-quinolyl), R^p is H, W is absent, R^w is H, R^1 is CH2C(=CH2)C(O)OCH3, R^2 is CH3] | 128 µg/mL | 0.39 µg/mL | 16 µg/mL | ≤ 0.004 µg/mL | > 100 µg/mL | 0.2 µg/mL | 0.05 µg/mL | 0.78 µg/mL | > 100 µg/mL | 0.39 µg/mL | 0.39 µg/mL | 25 µg/mL | 0.02 µg/mL | 0.02 µg/mL | 0.5 µg/mL | 0.39 µg/mL | 0.02 µg/mL | 0.39 µg/mL | 6.2 µg/mL | > 100 µg/mL | MIC [21]: 0.39 µg/mL; MIC [22]: > 100 µg/mL; MIC [23]: > 100 µg/mL; MIC [24]: 0.1 µg/mL; MIC [25]: ≤ 0.004 µg/mL; MIC [26]: 0.39 µg/mL; MIC [27]: 0.39 µg/mL
